In US20080227792A1, “3,4-Dihydro-1H-Isoquinoline-2-Carboxylic Acid 5-Aminopyridin-2-Yl Esters” (Novo Nordisk A/S, priority 2005, published 2008):

Tests used:
[1] = target: T1, hormone sensitive lipase (HSL) (Homo sapiens, UniProt Q05469); assay: 3190.2: Assay for determination of IC50 value for the inhibition of hormone sensitive lipase; format: biochemical; conditions: fluorochrome-labeled triacylglyceride substrate; 30 min pre-incubation at 25° C., 120 min incubation at 37° C.; 4PL fit
T1 construct: made in house
T1 sequence (Q05469 1-1076): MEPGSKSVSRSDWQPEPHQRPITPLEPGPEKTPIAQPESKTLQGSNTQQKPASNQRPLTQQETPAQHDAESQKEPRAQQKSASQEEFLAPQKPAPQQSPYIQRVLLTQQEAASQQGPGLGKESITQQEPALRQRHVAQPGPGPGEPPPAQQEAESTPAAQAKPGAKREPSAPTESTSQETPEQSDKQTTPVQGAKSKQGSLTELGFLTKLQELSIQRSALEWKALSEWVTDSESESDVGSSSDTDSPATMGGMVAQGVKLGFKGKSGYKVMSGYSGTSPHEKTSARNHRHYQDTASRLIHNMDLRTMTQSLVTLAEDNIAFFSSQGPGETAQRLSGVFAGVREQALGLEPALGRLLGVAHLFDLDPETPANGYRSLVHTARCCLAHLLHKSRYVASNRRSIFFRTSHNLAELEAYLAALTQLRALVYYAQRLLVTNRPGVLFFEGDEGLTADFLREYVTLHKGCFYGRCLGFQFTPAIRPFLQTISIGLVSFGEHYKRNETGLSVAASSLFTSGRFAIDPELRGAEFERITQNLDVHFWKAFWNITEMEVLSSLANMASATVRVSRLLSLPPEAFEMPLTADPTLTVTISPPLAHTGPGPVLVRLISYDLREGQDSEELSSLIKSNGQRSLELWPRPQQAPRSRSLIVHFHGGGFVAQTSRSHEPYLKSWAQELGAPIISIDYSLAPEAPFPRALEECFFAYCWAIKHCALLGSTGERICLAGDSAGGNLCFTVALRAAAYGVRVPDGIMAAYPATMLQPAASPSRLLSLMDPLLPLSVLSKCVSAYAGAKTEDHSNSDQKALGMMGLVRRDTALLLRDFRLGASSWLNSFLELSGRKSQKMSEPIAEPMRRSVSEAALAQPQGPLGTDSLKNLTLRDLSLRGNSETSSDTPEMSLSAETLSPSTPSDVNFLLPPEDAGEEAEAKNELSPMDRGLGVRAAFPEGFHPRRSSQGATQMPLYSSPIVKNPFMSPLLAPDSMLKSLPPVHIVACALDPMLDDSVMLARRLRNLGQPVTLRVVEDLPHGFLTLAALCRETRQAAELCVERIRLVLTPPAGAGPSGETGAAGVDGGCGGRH
Excerpt: Materials. The Hormone-sensitive lipase was provided by Dr. Cecilia Holm, from Lund University Sweden or produced and purified by Novo Nordisk (NN) using the reagents and protocols used by Dr. Holm. The substrates used are: ^3H-labeled triolein (TO) from Amersham, Buckinghamshire, U.K. cat o. TRA191; 5-20 Ci/mmol dissolved in toluene, triolein (Sigma, Cat. No. T-1740), fluorochrome-labeled triacylglyceride (cis-octadec-9-enoic acid 2-[12-(7-nitrobenzo[1,2,5]oxadiazol-4-ylamino)-dodecanoyloxy]-1-cis-octadec-9-enoyloxymethylethyl ester) prepared by Novo Nordisk (NN) by conventional methods, and 1,3-(di[^3H]-stearin), 2-(PEG-Biotin)glycerol prepared in collaboration with Amersham Pharmacia Biotech, UK and described in WO 01/073442. Phosphatidyl choline (PC) and phosphatidyl inositol (PI) are from Sigma (St Luis Mo. cat. Nos. P-3556 and P-5954, respectively). All other reagents are of commercial grade and obtained from various commercial sources.
3190.2: Assay for determination of IC50 value for the inhibition of hormone sensitive lipase by compound. Standard concentrations of compound are 100 μM and 5-fold dilutions (initial concentration corresponding to 10 μM final concentration and 5-fold).
A lipid emulsion with fluorochrome-labeled triacylglyceride and phospholipid is used as substrate with a standard concentration of highly purified HSL (12 μg/mL initial concentration corresponding to 600 ng/mL final concentration). BSA is added as product acceptor. The transfer of the fluorochrome from the lipid phase to the water (BSA) phase changes the fluorescent properties of the fluorochrome. The changes can be monitored on a fluorimeter with an excitation wavelength of 450 nm and an emission wavelength of 545 nm.
Compound and HSL (20 μL compound, 10 μL enzyme and 70 μL PED-BSA buffer) is pre-incubated for 30 min at 25° C. before addition of substrate (100 μL). Amount of formed product is measured after 120 min incubation at 37° C.
Results are given as IC50 values after 4PL fit of obtained activity data.

`O=C(Oc1ccc(N2C(=O)CC3(CCCC3)CC2=O)cn1)N1CCc2ccccc2C1` [Example 3, 3,4-Dihydro-1H-isoquinoline-2-carboxylic acid 5-(7,9-dioxo-8-azaspiro[4.5]dec-8-yl)pyridin-2-yl ester] gave an IC50 [1] of 40 nM.
`O=C(Oc1ccc(NC2=NC3(CCCC3)CS2)cn1)N1CCc2ccccc2C1` [Example 4, 3,4-Dihydro-1H-isoquinoline-2-carboxylic acid 5-(3-thia-1-azaspiro[4.4]non-1-en-2-ylamino)-pyridin-2-yl ester] showed an IC50 [1] of 400 nM.
`CC1(C)CC(=O)N(c2ccc(OC(=O)N3CCc4ccccc4C3)nc2)C(=O)C1` [Example 1, 3,4-Dihydro-1H-isoquinoline-2-carboxylic acid 4,4-dimethyl-2,6-dioxo-3,4,5,6-tetrahydro-2H-[1,3′]bi-pyridinyl-6′-yl ester] showed an IC50 [1] of 400 nM and a melting point of 156 to 158 °C.
